Test results reported in the NIST ThermoML archive (doi:10.1016/j.fluid.2013.09.030).

Assays:
[1] = refractive index (Na D-line) (dimensionless); settings: 298.15 K; 101.33 kPa; Liquid; Standard Abbe refractometry
[2] = Liquid; for mass density: 298.15 K, 101.33 kPa, Vibrating tube method; for vapor or sublimation pressure: Ebulliometric method (Recirculating still)
[3] = Boiling temperature at pressure P; settings: Liquid, Ebulliometric method (Recirculating still)
[4] = xn = mol fraction of the nth substance listed; settings: 298.15 K, 101 kPa, Liquid, Vibrating tube method
[5] = refractive index (Na D-line) (dimensionless); xn = mol fraction of the nth substance listed; settings: 298.15 K, 101 kPa, Liquid, Standard Abbe refractometry

COC(=O)OC [dimethyl carbonate]
Settings | mass density [kg/m3] | refractive index
[1] | – | 1.3666
[2] | 1063.26 | –

Settings | vapor or sublimation pressure [kPa]
[2], 363.25 K | 101.3

CO [methanol]
Settings | mass density [kg/m3] | refractive index
[1] | – | 1.3267
[2] | 786.69 | –

Settings | vapor or sublimation pressure [kPa]
[2], 338.12 K | 101.3

COC(=O)Oc1ccccc1 [methyl phenyl carbonate]
Settings | mass density [kg/m3] | refractive index
[1] | – | 1.4948
[2] | 1143.63 | –

[3]
Settings | Boiling temperature at pressure P [°C]
3 kPa | 105.66
5 kPa | 118.02
10 kPa | 136.72
15 kPa | 148.41
20 kPa | 157.08
25 kPa | 164.10
30 kPa | 170.01
35 kPa | 174.97
40 kPa | 179.58
45 kPa | 183.76
50 kPa | 187.52
55 kPa | 190.94
60 kPa | 194.06
65 kPa | 197.11
70 kPa | 199.87
75 kPa | 202.31
80 kPa | 204.76
85 kPa | 207.20
90 kPa | 209.54
95 kPa | 211.70
100 kPa | 213.56
101.3 kPa | 214.33
102.1 kPa | 214.51

COC(=O)Oc1ccccc1 [methyl phenyl carbonate] + CO
Settings | mass density, [4] [kg/m3] | refractive index, [5]
x1 = 0.0501 | 842.07 | 1.3647
x1 = 0.1001 | 886.48 | 1.3885
x1 = 0.2002 | 953.27 | 1.4283
x1 = 0.3002 | 1000.92 | 1.45
x1 = 0.4003 | 1036.71 | 1.467
x1 = 0.5 | 1064.49 | 1.4748
x1 = 0.6013 | 1087.16 | 1.4801
x1 = 0.7008 | 1105.28 | 1.4848
x1 = 0.8003 | 1120.25 | 1.4877
x1 = 0.9015 | 1133.12 | 1.4915
x1 = 0.9471 | 1138.14 | 1.4929

COC(=O)Oc1ccccc1 [methyl phenyl carbonate] + COC(=O)OC
Settings | mass density, [4] [kg/m3] | refractive index, [5]
x1 = 0.0499 | 1069.88 | 1.3764
x1 = 0.1 | 1076.1 | 1.3863
x1 = 0.2001 | 1087.37 | 1.4038
x1 = 0.2999 | 1097.32 | 1.419
x1 = 0.4 | 1106.17 | 1.4336
x1 = 0.5002 | 1114.08 | 1.4463
x1 = 0.6 | 1121.17 | 1.4575
x1 = 0.7007 | 1127.6 | 1.468
x1 = 0.8003 | 1133.42 | 1.4774
x1 = 0.8991 | 1138.71 | 1.4853
x1 = 0.9493 | 1141.22 | 1.4901
